Experimental data reported in patent US20170121344A1 (Siga Technologies, Inc., priority 2009, published 2017).
Where two headings read alike, the source gives them in different places.

Experiments:
DENV-1 = assay: Viral yield assay against DENV-1 in Vero cells; format: cell-based; details: Dengue virus
Summary of the method: (§1)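 Vero cells were infected with dengue virus at an MOI of 0.1, treated with compound or DMSO vehicle, and kept at 37° C. Supernatant virus was harvested 48 hours post infection and titered on Vero cells, with EC50 derived from yield reduction.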

DENV-4 = assay: Viral yield assay against DENV-4 in Vero cells; format: cell-based; details: Dengue virus
Summary of the method: as §1

[1] = tested on: Dengue-2 (Strain New Guinea C); assay: Viral yield assay against Dengue-2 in Vero cells; format: cell-based, Dengue virus; details: Dengue virus, read-out: Activity (EC50 in μM) DENV-2
Summary of the method: as §1

DENV-3 = assay: Viral yield assay against DENV-3 in Vero cells; format: cell-based; details: Dengue virus
Summary of the method: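 Infect Vero cells with virus (MOI 0.1), add compound or DMSO, incubate at 37° C, collect progeny at 48 hours post infection, then titrate on Vero cells to obtain EC50.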

[2] = DENV2, viral yield assay, Vero cells, MOI 0.1, 48 hours post infection

SMILES	EC50 (DENV-1; DENV1, viral yield assay)	EC50 (DENV-4; DENV4, viral yield assay)	EC50 [1, 2]	EC50 (DENV-3; DENV3, viral yield assay)	EC50 (DENV-1; DENV1)	EC50 (DENV-4; DENV4)	EC50 ([1]; DENV2, Vero cells)	EC50 (DENV-3; DENV3)	EC50 ([1]; DENV2, Vero, 48 h)
Nc1c(C(=O)Nc2ccc(C(F)(F)F)cc2)sc2nc(-c3ccncc3)ccc12 [Compound 465, 3-amino-6-(4-pyridyl)-N-[4-(trifluoromethyl)phenyl]thieno[2,3-b] pyridine-2-carboxamide]	< 5 µM	< 5 µM	< 5 µM	< 5 µM	–	–	–	–	–
COc1cccc(-c2ccc3c(N)c(C(=O)Nc4cccc(C)c4)sc3n2)c1 [Compound 547, 3-amino-6-(3-mehtoxyphenyl)-N-(m-tolyl)thieno[2,3-b]pyridine-2-carboxamide]	< 5 µM	< 5 µM	< 5 µM	< 5 µM	–	–	–	–	–
COc1ccc(-c2ccc3c(N)c(C(=O)Nc4cccc(C(F)(F)F)c4)sc3n2)cc1 [Compound 472, 3-amino-6-(4-methoxyphenyl)-N-[3-(trifluoromethyl)phenyl]thieno[2,3-b] pyridine-2-carboxamide]	< 5 µM	< 5 µM	< 5 µM	< 5 µM	–	–	–	–	–
COC(OC)c1ccc2c(N)c(C(=O)Nc3ccc(C(F)(F)F)cc3)sc2n1 [Compound 482, 3-amino-6-(dimethoxymethyl)-N-[4-(trifluoromethyl)phenyl]thieno[2,3-b] pyridine-2-carboxamide]	< 5 µM	< 5 µM	< 5 µM	< 5 µM	–	–	–	–	–
Nc1c(C(=O)Nc2cccc(C(F)(F)F)c2)sc2nc3c(cc12)CCCCC3 [Compound 368, 3-amino-N-(3-(trifluoromethyl)phenyl)-6,7,8,9-tetrahydro-5H-cyclohepta[b]thieno [3,2-e]pyridine-2-carboxamide]	< 5 µM	< 5 µM	< 5 µM	< 5 µM	–	–	–	–	–
COc1ccc(-c2ccc3c(N)c(C(=O)Nc4ccc(Cl)cc4)sc3n2)cc1 [Compound 493, 3-amino-N-(4-chlorophenyl)-6-(4-methoxyphenyl)thieno[2,3-b]pyridine-2-carboxamide]	< 5 µM	< 5 µM	< 5 µM	< 5 µM	–	–	–	–	–
C[N+](C)(C)CC(=O)Nc1c(C(=O)Nc2cccc(C(F)(F)F)c2)sc2nc(-c3cccs3)ccc12 [Compound 309, Trimethyl-[2-oxo-2-[[6-(2-thienyl)-2-[[3-(trifluoromethyl)phenyl]carbamoyl]thieno[2,3-b]pyridin-3-yl]amino]ethyl]ammonium]	–	–	–	–	< 5 µM	< 5 µM	< 5 µM	< 5 µM	–
Nc1c(C(=O)Nc2ccc(Br)cc2)sc2nc(-c3ccco3)ccc12 [Compound 439, 3-amino-N-(4-bromophenyl)-6-(2-furyl)thieno[2,3-b]pyridine-2-carboxamide]	< 5 µM	< 5 µM	–	< 5 µM	–	–	–	–	< 5 µM
Nc1c(C(=O)N(CCC(=O)O)c2cccc(C(F)(F)F)c2)sc2nc(-c3cccs3)ccc12 [Compound 327, 3-[N-[3-amino-6-(2-thienyl)thieno[2,3-b]pyridine-2-carbonyl]-3-(trifluoromethyl)-anilino]propanoic acid]	< 5 µM	< 5 µM	< 5 µM	< 5 µM	–	–	–	–	–
Nc1c(C(=O)Nc2ccc(Cl)cc2)sc2nc(-c3ccc(F)cc3)ccc12 [Compound 620, 3-amino-N-(4-chlorophenyl)-6-(4-fluorophenyl)thieno[2,3-b]pyridine-2-carboxamide]	< 5 µM	< 5 µM	< 5 µM	< 5 µM	–	–	–	–	–
COc1ccc(-c2ccc3c(N)c(C(=O)Nc4ccc(C)c(Cl)c4)sc3n2)cc1OC [Compound 574, 3-amino-N-(3-chloro-4-mehtyl-phenyl)-6-(3,4-dimethoxyphenyl)thieno[2,3-b] pyridine-2-carboxamide]	< 5 µM	< 5 µM	< 5 µM	< 5 µM	–	–	–	–	–
Nc1c(C(=O)Nc2ccc(Br)nc2)sc2nc(-c3ccc(Cl)cc3)ccc12 [Compound 336, 3-amino-N-(6-bromo-3-pyridyl)-6-(4-chlorophenyl)thieno [2,3-b]pyridine-2-carboxamide]	< 5 µM	< 5 µM	< 5 µM	< 5 µM	–	–	–	–	–
Nc1c(C(=O)Nc2ccccc2)sc2nc(-c3cccs3)ccc12 [Compound 411, 3-amino-N-phenyl-6-(2-thienyl)thieno [2,3-b]pyridin-2-carboxamide]	< 5 µM	< 5 µM	–	< 5 µM	–	–	–	–	< 5 µM
Nc1c(C(=O)Nc2cccc(Cl)c2)sc2nc(-c3cccs3)ccc12 [Compound 445, 3-amino-N-(3-chlorophenyl)-6-(2-thienyl)thieno[2,3-b]pyridine-2-carboxamide]	< 5 µM	< 5 µM	< 5 µM	< 5 µM	–	–	–	–	–
COc1ccc(-c2ccc3c(N)c(C(=O)Nc4ccc(Br)cc4)sc3n2)cc1 [Compound 469, 3-amino-N-(4-bromophenyl)-6-(4-methoxyphenyl)thieno[2,3-b]pyridine-2-carboxamide]	< 5 µM	< 5 µM	< 5 µM	< 5 µM	–	–	–	–	–
Nc1c(C(=O)Nc2ccc(Cl)cn2)sc2nc(-c3ccc(Cl)cc3)ccc12 [Compound 352, 3-amino-6-(4-chlorophenyl)-N-(5-chloro-2-pyridyl)thieno [2,3-b]pyridine-2-carboxamide]	< 5 µM	< 5 µM	< 5 µM	< 5 µM	–	–	–	–	–
O=C(O)CC(=O)Nc1c(C(=O)Nc2nnc(-c3ccccc3)s2)sc2nc(Cl)ccc12 [Compound 362, 3-[[6-chloro-2-[(5-phenyl-1,3,4-thiadiazol-2-yl)carbamoyl]thieno[2,3-b]pyridin-3-yl]amino]-3-oxo-propanoic acid]	–	–	–	–	5 to 25 µM	> 25 µM	5 to 25 µM	> 25 µM	–
Cc1ccc(NC(=O)c2sc3nc(-c4ccc5c(c4)OCO5)ccc3c2N)cc1Cl [Compound 529, 3-amino-6-(1,3-benzodioxol-5-yl)-N-(3-chloro-4-methyl-phenyl)thieno[2,3-b] pyridine-2-carboxamide]	< 5 µM	< 5 µM	< 5 µM	< 5 µM	–	–	–	–	–
COc1cccc(-c2ccc3c(N)c(C(=O)Nc4cc(Cl)ccc4Cl)sc3n2)c1 [Compound 495, 3-amino-N-(2,5-dichlorophenyl)-6-(3-methoxyphenyl)thieno[2,3-b]pyridine-2-carboxamide]	< 5 µM	< 5 µM	< 5 µM	< 5 µM	–	–	–	–	–
COc1cccc(-c2ccc3c(N)c(C(=O)Nc4ccccc4Oc4ccccc4)sc3n2)c1 [Compound 522, 3-amino-6-(3-methoxyphenyl)-N-(2-phenoxyphenyl)thieno[2,3-b]pyridine-2-carboxamide]	< 5 µM	< 5 µM	< 5 µM	< 5 µM	–	–	–	–	–
Nc1c(C(=O)Nc2ccc(Br)cn2)sc2nc(-c3ccc(Cl)cc3)ccc12 [Compound 335, 3-amino-N-(5-bromo-2-pyridyl)-6-(4-chlorophenyl)thieno [2,3-b]pyridine-2-carboxamide]	< 5 µM	< 5 µM	< 5 µM	< 5 µM	–	–	–	–	–
Nc1c(C(=O)Nc2ccccc2)sc2nc(-c3ccc(Cl)cc3)ccc12 [Compound 631, 3-amino-6-(4-chlorophenyl)-N-phenyl-thieno[2,3-b]pyridine-2-carboxamide]	< 5 µM	< 5 µM	< 5 µM	< 5 µM	–	–	–	–	–
COc1cccc(-c2ccc3c(N)c(C(=O)Nc4ccc(SC)cc4)sc3n2)c1 [Compound 566, 3-amino-6-(3-methoxyphenyl)-N-(4-methylsulfanylphenyl)thieno[2,3-b] pyridine-2-carboxamide]	< 5 µM	< 5 µM	< 5 µM	< 5 µM	–	–	–	–	–
COc1cccc(-c2ccc3c(N)c(C(=O)Nc4ccc(OC)cc4OC)sc3n2)c1 [Compound 512, 3-amino-N-(2,4-dimethoxyphenyl)-6-(3-methoxyphenyl)thieno[2,3-b]pyridine-2-carboxamide]	< 5 µM	< 5 µM	< 5 µM	< 5 µM	–	–	–	–	–
COc1cccc(-c2ccc3c(N)c(C(=O)Nc4cccc(Cl)c4C)sc3n2)c1 [Compound 543, 3-amino-N-(3-chloro-2-methyl-phenyl)-6-(3-methoxyphenyl)thieno[2,3-b] pyridine-2-carboxamide]	< 5 µM	< 5 µM	< 5 µM	< 5 µM	–	–	–	–	–
COc1ccc(-c2ccc3c(N)c(C(=O)Nc4ccc(C(C)=O)cc4)sc3n2)cc1 [Compound 494, N-(4-acetylphenyl)-3-amino-6-(4-methoxyphenyl)thieno[2,3-b]pyridine-2-carboxamide]	< 5 µM	< 5 µM	–	5 to 25 µM	–	–	–	–	< 5 µM
Cc1ccc(NC(=O)c2sc3nc(-c4cccs4)ccc3c2N)cc1F [Compound 458, 3-amino-N-(3-fluoro-4-methyl-phenyl)-6-(2-thienyl)thieno [2,3-b]pyridine-2-carboxamide]	< 5 µM	< 5 µM	< 5 µM	< 5 µM	–	–	–	–	–
COc1ccc(-c2ccc3c(N)c(C(=O)Nc4ccc(C(F)(F)F)cc4)sc3n2)cc1 [Compound 492, 3-amino-6-(4-methoxyphenyl)-N-[4-(trifluoromethyl)phenyl]thieno[2,3-b] pyridine-2-carboxamide]	< 5 µM	< 5 µM	< 5 µM	< 5 µM	–	–	–	–	–
